Like-named read-outs stand apart in the source and are kept apart here.
Assays:
Assay in all cases: cells
Colo320 = format: cell-based
INS-1E cells = format: cell-based, rat
[1] = test system: endothelial tube formation in co-cultures of ECFCs and ADSCs treated with VEGF; format: cell-based, human
NCI-H716 cells = format: cell-based, Human
RKO = format: cell-based
SNU-C1 = format: cell-based
HCT116 = format: cell-based
[2] = test system: HCT116 cells treated with a GSK3β inhibitor; format: cell-based
HeLa cells = format: cell-based; settings: read-out: CellCycle G2/M
SW480 = format: cell-based
HT-29 = format: cell-based
DLD-1 = format: cell-based
[3] = test system: nuclear β-catenin in C2C12 cells; format: cell-based
[4] = basal, read-out: Basal_Viability ATP Colo 320
[5] = IC50 / EC50; INS-1E; read-out: Insulin Secretion
[6] = IC50 / EC50; endothelial tube area, ADSC/ECFC co-culture; read-out: Anti-Angiogenesis
[7] = IC50 / EC50; NCI-H716; read-out: GLP 1 Secretion
[8] = basal, read-out: Basal_Viability ATP RKO
[9] = basal, read-out: Basal_Viability ATP SNU-C1
[10] = basal, read-out: Basal_Viability ATP HCT116
[11] = GSK3b inhibitor pretreated, read-out: GSK3b inh pretreated_Viability ATP HCT116
[12] = basal, read-out: Basal_Viability ATP SW480
[13] = basal, read-out: Basal_Viability ATP HT-29
[14] = basal, read-out: Basal_Viability ATP DLD-1
[15] = IC50 / EC50; C2C12 beta-catenin translocation; read-out: Wnt Pathway
[16] = read-out: Basal_Viability ATP Colo 320
[17] = read-out: Basal_Viability ATP RKO
[18] = read-out: Basal_Viability ATP SNU-C1
[19] = read-out: Basal_Viability ATP HCT116
[20] = read-out: GSK3b inh pretreated_Viability ATP HCT116
[21] = read-out: Basal_Viability ATP SW480
[22] = read-out: Basal_Viability ATP HT-29
[23] = read-out: Basal_Viability ATP DLD-1
[24] = Homo sapiens, basal, Colo 320, read-out: Basal_Viability ATP Colo 320
[25] = Rattus norvegicus, INS-1E; read-out: Insulin Secretion
[26] = Homo sapiens; read-out: Anti-Angiogenesis
[27] = Homo sapiens, NCI-H716; read-out: GLP 1 Secretion
[28] = Homo sapiens, basal, RKO, read-out: Basal_Viability ATP RKO
[29] = Homo sapiens, SNU-C1, basal, SNU-C1, read-out: Basal_Viability ATP SNU-C1
[30] = Homo sapiens, HCT-116, basal, HCT116, read-out: Basal_Viability ATP HCT116
[31] = Homo sapiens, HCT-116, HCT116 pretreated with GSK3b inhibitor, read-out: GSK3b inh pretreated_Viability ATP HCT116
[32] = Homo sapiens, HeLa, S2 Table, HeLa, 20 = no response at highest concentration
[33] = Homo sapiens, SW480, basal, SW480, read-out: Basal_Viability ATP SW480
[34] = Homo sapiens, HT-29, read-out: Basal_Viability ATP HT-29
[35] = Homo sapiens, DLD-1, basal, DLD-1, read-out: Basal_Viability ATP DLD-1
[36] = Homo sapiens, COLO 320, read-out: Basal_Viability ATP Colo 320
[37] = Homo sapiens, read-out: Anti-Angiogenesis
[38] = Homo sapiens, RKO, read-out: Basal_Viability ATP RKO
[39] = Homo sapiens, SNU-C1, read-out: Basal_Viability ATP SNU-C1
[40] = Homo sapiens, HCT-116, read-out: Basal_Viability ATP HCT116
[41] = Homo sapiens, HCT-116, read-out: GSK3b inh pretreated_Viability ATP HCT116
[42] = Homo sapiens, SW480, read-out: Basal_Viability ATP SW480
[43] = Homo sapiens, DLD-1, read-out: Basal_Viability ATP DLD-1
[44] = Homo sapiens, basal, HT-29, read-out: Basal_Viability ATP HT-29
[45] = Mus musculus, C2C12, S2 Table; module primary assay; 20 / 20.1 codes per legend; read-out: Wnt Pathway

O=[N+]([O-])c1ccc(Oc2ccc(N=C=S)cc2)cc1 [Cantrodifene]
IC50 (Colo320; [4]): 1460 nM
EC50 (INS-1E cells; [5]): > 10000 nM
IC50 [1, 6]: 3720 nM
EC50 (NCI-H716 cells; [7]): > 10000 nM
IC50 (RKO; [8]): 2340 nM
IC50 (SNU-C1; [9]): 4330 nM
IC50 (HCT116; [10]): 2770 nM
IC50 [2, 11]: 1470 nM
EC50 (HeLa cells; IC50 / EC50, HeLa): > 10000 nM
IC50 (SW480; [12]): 1630 nM
IC50 (HT-29; [13]): 1070 nM
IC50 (DLD-1; [14]): 2100 nM
EC50 [3, 15]: > 10000 nM

O=C([O-])CN(CCN(CC(=O)[O-])CC(=O)O)CCN(CC(=O)[O-])CC(=O)O.[Gd+3] [Gadopentetic acid]
IC50 (Colo320; [16]): > 20000 nM
EC50 (INS-1E cells; read-out: Insulin Secretion): > 10000 nM
IC50 ([1]; read-out: Anti-Angiogenesis): > 10000 nM
EC50 (NCI-H716 cells; read-out: GLP 1 Secretion): > 10000 nM
IC50 (RKO; [17]): 2960 nM
IC50 (SNU-C1; [18]): > 20000 nM
IC50 (HCT116; [19]): > 20000 nM
IC50 [2, 20]: 896 nM
EC50 (HeLa cells): > 10000 nM
IC50 (SW480; [21]): 3140 nM
IC50 (HT-29; [22]): > 20000 nM
IC50 (DLD-1; [23]): > 20000 nM
EC50 ([3]; read-out: Wnt Pathway): > 10000 nM

O=C(c1cc(O)c(O)c(O)c1)c1ccc(O)c(O)c1O [Hexahydro-2,3,4,3',4',5'-benzophenone]
IC50 (Colo320; [4]): 9380 nM
EC50 (INS-1E cells; [5]): > 10000 nM
IC50 [1, 6]: > 10000 nM
EC50 (NCI-H716 cells; [7]): > 10000 nM
IC50 (RKO; [8]): 192 nM
IC50 (SNU-C1; [9]): 12800 nM
IC50 (HCT116; [10]): 16300 nM
IC50 [2, 11]: 69.1 nM
EC50 (HeLa cells; IC50 / EC50, HeLa): > 10000 nM
IC50 (SW480; [12]): 9950 nM
IC50 (HT-29; [13]): 9450 nM
IC50 (DLD-1; [14]): 11900 nM
EC50 [3, 15]: > 10000 nM

O=C1C(I)=CC(=C(c2cc(I)c(O)c(I)c2)c2ccccc2C(=O)O)C=C1I [Iodotetragnost]
IC50 (Colo320; [24]): 312 nM
EC50 (INS-1E cells; [25]): > 10000 nM
IC50 [1, 26]: > 10000 nM
EC50 (NCI-H716 cells; [27]): > 10000 nM
IC50 (RKO; [28]): 37.3 nM
IC50 (SNU-C1; [29]): 3760 nM
IC50 (HCT116; [30]): 384 nM
IC50 [2, 31]: 54 nM
EC50 (HeLa cells; [32]): > 10000 nM
IC50 (SW480; [33]): 112 nM
IC50 (HT-29; [34]): 5730 nM
IC50 (DLD-1; [35]): 13.2 nM
EC50 ([3]; Mus musculus, C2C12; read-out: Wnt Pathway): > 20000 nM

CO[C@@]12[C@H](COC(N)=O)C3=C(C(=O)C(C)=C(N)C3=O)N1C[C@@H]1N[C@@H]12 [Mitomycin]
IC50 (Colo320; [36]): 12600 nM
EC50 (INS-1E cells; Rattus norvegicus, INS-1E, read-out: Insulin Secretion): > 10000 nM
IC50 [1, 37]: 102 nM
EC50 (NCI-H716 cells; Homo sapiens, NCI-H716, read-out: GLP 1 Secretion): > 10000 nM
IC50 (RKO; [38]): 995 nM
IC50 (SNU-C1; [39]): 8130 nM
IC50 (HCT116; [40]): 13600 nM
IC50 [2, 41]: > 20000 nM
EC50 (HeLa cells; Homo sapiens, HeLa): > 10000 nM
IC50 (SW480; [42]): 12100 nM
IC50 (HT-29; [34]): 2570 nM
IC50 (DLD-1; [43]): 5630 nM
EC50 ([3]; Mus musculus, C2C12, read-out: Wnt Pathway): > 10000 nM

O=C(NOCC1CC1)c1ccc(F)c(F)c1Nc1ccc(I)cc1Cl [PD-184352, reference compound]
IC50 (Colo320; Homo sapiens, COLO 320, 72 h, read-out: Colo320 viab. IC50): 850 nM
IC50 (Colo320; [36]): 848 nM
EC50 (INS-1E cells; Rattus norvegicus, INS-1E, read-out: Ins. sec. EC50): > 10000 nM
IC50 ([1]; Homo sapiens, read-out: Anti-Angio IC50): 370 nM
IC50 [1, 37]: 368 nM
EC50 (NCI-H716 cells; Homo sapiens, NCI-H716, read-out: GLP1 sec. EC50): > 10000 nM
IC50 (RKO; Homo sapiens, RKO, 72 h, read-out: RKO viab. IC50): 3 nM
IC50 (RKO; [38]): 3.19 nM
IC50 (SNU-C1; Homo sapiens, SNU-C1, 72 h, read-out: SNU-C1 viab. IC50): 17 nM
IC50 (SNU-C1; [39]): 17.1 nM
IC50 (HCT116; Homo sapiens, HCT-116, 72 h, read-out: HCT-116 viab. IC50): 2 nM
IC50 (HCT116; [40]): 1.79 nM
IC50 ([2]; Homo sapiens, HCT-116, 72 h, read-out: HCT-116 (GSK3β) viab. IC50): 970 nM
IC50 [2, 41]: 969 nM
EC50 (HeLa cells; Homo sapiens, HeLa): > 10000 nM
IC50 (SW480; Homo sapiens, SW480, 72 h, read-out: SW480 viab. IC50): 5 nM
IC50 (SW480; [42]): 4.95 nM
IC50 (HT-29; Homo sapiens, HT-29, 72 h, read-out: HT-29 viab. IC50): 26 nM
IC50 (HT-29; [34]): 26.3 nM
IC50 (DLD-1; Homo sapiens, DLD-1, 72 h, read-out: DLD-1 viab. IC50): 2200 nM
IC50 (DLD-1; [43]): 2160 nM
EC50 ([3]; Mus musculus, C2C12, read-out: Wnt pot. EC50): > 10000 nM

OC[C@H]1O[C@@H](n2cnc3c(S)ncnc32)[C@H](O)[C@@H]1O [Thioinosine]
IC50 (Colo320; [24]): 1060 nM
EC50 (INS-1E cells; [25]): > 10000 nM
IC50 [1, 26]: 1420 nM
EC50 (NCI-H716 cells; [27]): > 10000 nM
IC50 (RKO; [28]): 14.4 nM
IC50 (SNU-C1; [29]): 2180 nM
IC50 (HCT116; [30]): 28.6 nM
IC50 [2, 31]: 504 nM
EC50 (HeLa cells; [32]): > 10000 nM
IC50 (SW480; [33]): 28.7 nM
IC50 (HT-29; [44]): 118 nM
IC50 (DLD-1; [35]): 63 nM
EC50 [3, 45]: > 10000 nM

O=C(Nc1ccc(Br)cc1)c1cc(Br)cc(Br)c1O [Tribromsalan]
IC50 (Colo320; [24]): 3 nM
EC50 (INS-1E cells; [25]): > 10000 nM
IC50 [1, 26]: 1810 nM
EC50 (NCI-H716 cells; [27]): > 10000 nM
IC50 (RKO; [28]): 3 nM
IC50 (SNU-C1; [29]): 1 nM
IC50 (HCT116; [30]): 3 nM
IC50 [2, 31]: 1 nM
EC50 (HeLa cells; [32]): > 10000 nM
IC50 (SW480; [33]): 1 nM
IC50 (HT-29; [44]): 1 nM
IC50 (DLD-1; [35]): 1 nM
EC50 [3, 45]: > 10000 nM

Oc1ccc([C@@H]2CNCc3c2ccc(O)c3O)cc1O [Zelandopam]
IC50 (Colo320; [16]): 466 nM
EC50 (INS-1E cells; read-out: Insulin Secretion): > 10000 nM
IC50 ([1]; read-out: Anti-Angiogenesis): > 10000 nM
EC50 (NCI-H716 cells; read-out: GLP 1 Secretion): 5950 nM
IC50 (RKO; [17]): 33.2 nM
IC50 (SNU-C1; [18]): > 20000 nM
IC50 (HCT116; [19]): > 20000 nM
IC50 [2, 20]: 188 nM
EC50 (HeLa cells): > 10000 nM
IC50 (SW480; [21]): > 20000 nM
IC50 (HT-29; [22]): > 20000 nM
IC50 (DLD-1; [23]): > 20000 nM
EC50 ([3]; read-out: Wnt Pathway): > 10000 nM

CCCCC(CC)CNC(=N)NC(=N)NCCCCCCNC(=N)NC(=N)NCC(CC)CCCC (stereo not shown) [alexidine]
IC50 (Colo320; [24]): 4.1 nM
EC50 (INS-1E cells; [25]): > 10000 nM
IC50 [1, 26]: 408 nM
EC50 (NCI-H716 cells; [27]): > 10000 nM
IC50 (RKO; [28]): 223 nM
IC50 (SNU-C1; [29]): 94.1 nM
IC50 (HCT116; [30]): 710 nM
IC50 [2, 31]: 396 nM
EC50 (HeLa cells; [32]): > 10000 nM
IC50 (SW480; [33]): 333 nM
IC50 (HT-29; [44]): 30.2 nM
IC50 (DLD-1; [35]): 19.7 nM
EC50 [3, 45]: > 10000 nM

Source: PMC4503722, “Novel Phenotypic Outcomes Identified for a Public Collection of Approved Drugs from a Publicly Accessible Panel of Assays” (PLoS ONE, 2015)
